Source: US11065335B2, “Methods of treating leukemia using compositions containing bis(benzylthio)octanoic acid and ion pairs thereof” (Rafael Pharmaceuticals, Inc., priority 2007, dated 2021)
Where a name gives a salt, the structure may show the parent alone.

Assays:
[1] = system: BXPC3 human pancreatic cancer cells; test: CellTiter Glo cell viability assay, BXPC3 cells; details: 24 hrs; for BXPC3 Cell Viability (alkali salt formulations): CPI-613 to base 1:1
Description: (§1) Two types of human tumor cells were used in this investigation: BXPC3 human pancreatic cancer cells and A2780 human ovarian cancer cells. The BXPC3 cells were originally obtained from American Type Cell Culture (ATCC). The ovarian tumor cells were gifts from Roswell Park Cancer Institute, Buffalo, N.Y. All tumor cells were maintained at 37° C. in a humidified 5% CO2 atmosphere in T75 tissue culture flasks containing 20 mL of Roswell Park Memorial Institute (RPMI) 1640 containing 2 mM L-glutamine, 10% fetal bovine serum (FBS) and 1% penicillin and streptomycin (100 IU/mL penicillin and 100 μg/mL streptomycin). The tumor cells were split at a ratio of 1:5 every 4-5 days by trypsinization and resuspended in fresh medium in a new flask. Cells were harvested for experiments at 70-90% confluency.
(§2) CPI-613 (i.e., 6,8-bis(benzylthio)octanoic acid) stock solutions at concentrations of 8, 4, 2, 1.5 and 0.5 mM were prepared in the appropriate vehicles. The molar ratio of vehicle to CPI-613 was maintained at 8:1. The corresponding vehicle concentrations were 64, 32, 16, 12, and 4 mM respectively. A sixty-four mM aliquot of vehicle was dissolved in 10 mL of water. Next, 8 mM of CPI-613 was added and the mixture was stirred until a clear solution was obtained. […] A 5 μL aliquot of this stock solution was added to 95 μL of tumor cells in media. Upon dilution in the wells, the corresponding drug concentrations were 400, 200, 100, 75 and 25 μM respectively.
(§3) For the sodium salt and potassium salt form of CPI-613, 1 equivalent of CPI-613 solid was dissolved in water. Sixty-two mg of CPI-613 (0.00016 mol) was added to 10 mL of water, then 165 μL of 1M NaOH or KOH was added and stirred until a clear solution was obtained. This gave a 16 mM solution. The resulting 16 mM solution was then serially diluted, thereby providing 8 mM and 4 mM solutions of the CPI-613 salt form. For the ammonium salt, vehicle to drug ratio was maintained at 8:1 and the formulation was prepared using procedures analogous to those described above in Section 2 relating to preparation of CPI-613 formulations in different vehicles.
(§4) CPI-613 formulated in 1M triethanolamine (TEA) was used as an internal control during formulation screening. To prepare a 16 mM of working stock of CPI-613, 50 mg/mL of CPI-613 (128.66 mM of CPI-613 in 1M TEA) was diluted in complete cell culture media containing 10% FBS. That is, 310 μL of a 128.66 mM solution of CPI-613 in 1M TEA was added to 2.19 mL of cell culture media. This stock was further diluted serially in complete media to give 8 mM, 4 mM 2 mM, 1.5 mM and 0.5 mM working solutions. On the day of testing, 5 μL of this working solution was added to 95 μL of cell culture media (20 fold dilution) resulting final concentrations of 400, 200, 100, 75 and 25 μM CPI-613, respectively. The ratio of CPI-613 to TEA was maintained at 1:8 ratio at all times.
(§5) The cell viability of CPI-613 formulations formulated at a ratio of 1:8, CPI-613 to vehicle, was assessed by exposing the A2780 ovarian tumor cells and BXPC3 human pancreatic cancer cells to the following CPI-613 concentrations: 400 μM (3200 μM vehicle), 200 μM (1600 μM vehicle), 100 μM (800 μM vehicle), 75 μM (600 μM vehicle) and 25 μM (200 μM vehicle) The impact of corresponding vehicles at 3200, 1600 and 800 μM concentrations was also tested in tumor cells for cell viability. […] CPI-613 in TEA was used as an internal control. The tumor cells were treated for 24 hrs with the test article in serum-containing medium. After 24 hrs of treatment the number of viable tumor cells was determined.
(§6) The number of cells targeted for the study was 4×10^3 per well in 100 μL of medium. The actual number of cells were counted and seeded in the wells of a 96 well-plate. The cells were incubated for ˜24 hrs before addition of CPI-613.
(§7) For each cell line the concentrations of test articles or vehicles specified above was used.

[2] = system: A2780 human ovarian cancer cells; test: CellTiter Glo cell viability assay, A2780 cells; details: 24 hrs; for A2780 Cell Viability (alkali salt formulations): CPI-613 to base 1:1
Description: as §1, §2, §3, §4, §5, §6, §7

[3] = system: A2780 ovarian tumor cells and BXPC3 human pancreatic cancer cells; test: CellTiter Glo cell viability assay, text statements not split by cell line; type: cell-based; details: vehicle alone 3200 μM
Description: Two types of human tumor cells were used in this investigation: BXPC3 human pancreatic cancer cells and A2780 human ovarian cancer cells. The BXPC3 cells were originally obtained from American Type Cell Culture (ATCC). […] The tumor cells were split at a ratio of 1:5 every 4-5 days by trypsinization and resuspended in fresh medium in a new flask. Cells were harvested for experiments at 70-90% confluency.
The corresponding vehicle concentrations were 64, 32, 16, 12, and 4 mM respectively. A sixty-four mM aliquot of vehicle was dissolved in 10 mL of water. […] A 5 μL aliquot of this stock solution was added to 95 μL of tumor cells in media. Upon dilution in the wells, the corresponding drug concentrations were 400, 200, 100, 75 and 25 μM respectively.
This gave a 16 mM solution.
This stock was further diluted serially in complete media to give 8 mM, 4 mM 2 mM, 1.5 mM and 0.5 mM working solutions.
The tumor cells were treated for 24 hrs with the test article in serum-containing medium. After 24 hrs of treatment the number of viable tumor cells was determined.
The number of cells targeted for the study was 4×10^3 per well in 100 μL of medium. The actual number of cells were counted and seeded in the wells of a 96 well-plate.
For each cell line the concentrations of test articles or vehicles specified above was used. Five μL of the working solution for each test article or vehicle was added to 95 μL of cell culture media. The corresponding final concentrations of test articles are 20 fold more diluted than the working solutions. […] Additionally, a set of wells was treated with cell culture medium in the absence of cells to obtain a value for background luminescence.
The number of viable cells was determined by using the CellTiter Glo® Assay. Specifically, reagents were mixed and allowed to come to room temperature according to instructions from Promega, Inc. (Madison, Wis.). Cell plates were removed from the cell culture incubator and left on the bench for 30 minutes until they reach room temperature. A one-hundred μL aliquot CellTiter Glo® reagent was added to each well with a 12-channel Eppendorf pipettor. The cells were lysed by shaking the plate for 2 minutes in a shaker. Then, the cells were kept at room temperature for 10 minutes to stabilize the luminescent signal. The luminescence was measured using the FLUOstar OPTIMA plate reader (BMG Labtech, Inc., Durham, N.C.).
Data from luminescence readings was copied onto EXCEL spreadsheets, and cell growth relative to untreated cells was calculated, using the following equation: […]
The calculated values were imported into SigmaPlot, v11. A Four-Parameter Logistic Curve of the “mean relative cell growth as a function of the concentrations of the test articles” was generated. The EC50 values were determined from the curves. The R-squared value provides an indication of the degree of fitness of data to the curve. For each experiment, the percentage of viable cells was be expressed as the mean of 9 replicates. The average was calculated by taking the mean±standard deviation of the three experiments.

[4] = CellTiter Glo cell viability assay, BXPC3 cells; details: human, BXPC3 Cell Viability; for viability: 24 hrs
Description: as §1, §2, §3, §4, §5, §6, §7

[5] = CellTiter Glo cell viability assay, A2780 cells; details: human, A2780 Cell Viability; for viability: 24 hrs
Description: as §1, §2, §3, §4, §5, §6, §7

[6] = BXPC3 pancreatic cancer cells, vehicle alone 800 μM
[7] = BXPC3 pancreatic cancer cells, vehicle alone 1600 μM
[8] = BXPC3 pancreatic cancer cells, vehicle alone 3200 μM
[9] = A2780 ovarian cancer cells, vehicle alone 800 μM
[10] = A2780 ovarian cancer cells, vehicle alone 1600 μM
[11] = A2780 ovarian cancer cells, vehicle alone 3200 μM

Compound	impact of vehicle on cancer cell killing [3]	viability at 24 h, 800 μM [4, 6] [%]	viability at 24 h, 1600 μM [4, 7] [%]	viability at 24 h, 3200 μM [4, 8] [%]	viability at 24 h, 800 μM [5, 9] [%]	viability at 24 h, 1600 μM [5, 10] [%]	viability at 24 h, 3200 μM [5, 11] [%]	further results
O=C(O)CCCCC(CCSCc1ccccc1)SCc1ccccc1 (stereo not drawn) [CPI-613 potassium salt]	–	–	–	–	–	–	–	BXPC3 Cell Viability (alkali salt formulations) ([1]; CPI-613 25 μM): + (tumor cell viability of >95%); BXPC3 Cell Viability (alkali salt formulations) ([1]; CPI-613 75 μM): ++ (tumor cell viability of >70% up to 95%); BXPC3 Cell Viability (alkali salt formulations) ([1]; CPI-613 100 μM): ++ (tumor cell viability of >70% up to 95%); BXPC3 Cell Viability (alkali salt formulations) ([1]; CPI-613 200 μM): +++ (tumor cell viability of >30% up to 70%); BXPC3 Cell Viability (alkali salt formulations) ([1]; CPI-613 400 μM): +++++ (tumor cell viability of ≤10%); cell kill in BXPC3 cells ([1]; salt formulation at 200 μM): ~50%; cell kill in BXPC3 cells ([1]; salt formulation at 400 μM): all the cells were killed; A2780 Cell Viability (alkali salt formulations) ([2]; CPI-613 25 μM): ++ (tumor cell viability of >70% up to 95%); A2780 Cell Viability (alkali salt formulations) ([2]; CPI-613 75 μM): ++ (tumor cell viability of >70% up to 95%); A2780 Cell Viability (alkali salt formulations) ([2]; CPI-613 100 μM): ++ (tumor cell viability of >70% up to 95%); A2780 Cell Viability (alkali salt formulations) ([2]; CPI-613 200 μM): +++ (tumor cell viability of >30% up to 70%); A2780 Cell Viability (alkali salt formulations) ([2]; CPI-613 400 μM): +++++ (tumor cell viability of ≤10%); cell kill in A2780 cells ([2]; salt formulation at 200 μM): ~65%; cell kill in A2780 cells ([2]; salt formulation at 400 μM): all the cells were killed
NCCN [Ethylenediamine]	appear to have come cell killing effects	> 95	70 to 85	< 70	85 to 95	85 to 95	< 70	–
Aminopropanediol	did not show a significant impact on cancer cell killing	–	–	–	–	–	–	–
NCCO [Ethanolamine]	–	85 to 95	85 to 95	85 to 95	> 95	> 95	> 95	–
CNC[C@H](O)[C@@H](O)[C@H](O)[C@H](O)CO [Meglumine]	did not show a significant impact on cancer cell killing	–	–	–	–	–	–	viability ([4]; vehicle alone 800 μM): 85 to 95%; viability ([4]; vehicle alone 1600 μM): 85 to 95%; viability ([4]; vehicle alone 3200 μM): 85 to 95%; viability ([5]; vehicle alone 800 μM): > 95%; viability ([5]; vehicle alone 1600 μM): > 95%; viability ([5]; vehicle alone 3200 μM): > 95%
CCNCC [Diethylamine]	did not show a significant impact on cancer cell killing	–	–	–	–	–	–	viability at 24 h, 800 μM ([4]; vehicle alone 800 μM): > 95%; viability at 24 h, 1600 μM ([4]; vehicle alone 1600 μM): 70 to 85%; viability at 24 h, 3200 μM ([4]; vehicle alone 3200 μM): < 70%; viability at 24 h, 800 μM ([5]; vehicle alone 800 μM): > 95%; viability at 24 h, 1600 μM ([5]; vehicle alone 1600 μM): > 95%; viability at 24 h, 3200 μM ([5]; vehicle alone 3200 μM): 85 to 95%
NCCCC[C@H](N)C(=O)O [Lysine]	did not show a significant impact on cancer cell killing	> 95	> 95	> 95	> 95	> 95	> 95	–
OCCNCCO [Diethanolamine]	did not show a significant impact on cancer cell killing	85 to 95	85 to 95	85 to 95	85 to 95	85 to 95	> 95	–
C1CNCCN1 [Piperazine]	did not show a significant impact on cancer cell killing	85 to 95	85 to 95	70 to 85	85 to 95	70 to 85	85 to 95	–
CCN(CC)CC [Triethylamine]	did not show a significant impact on cancer cell killing	> 95	> 95	> 95	> 95	> 95	> 95	–
NCCCO [3-amino-1-proponol]	did not show a significant impact on cancer cell killing	–	–	–	–	–	–	–
CC(O)CNCC(C)O (stereo not drawn) [Diisopropanolamine]	appear to have come cell killing effects	–	–	–	–	–	–	–
